According to the supplement of paper PMC4862054:

Experiments:
Settings in all cases: 72 h
CAL-148 [1] = test system: CAL-148
Protocol: (§1)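 Drug sensitivity and resistance testing (DSRT) of breast cancer cell lines in 384-well plates, 5 concentrations in 10-fold dilutions over a compound-specific 10,000-fold range. After 72 h, cytotoxicity was read by CellTox Green fluorescence and viability by CellTiter-Glo luminescence (multiplexed), normalised to DMSO and benzethonium chloride controls. EC50 is the inflection point of the fitted dose-response curve (bottom asymptote free, so it can be relative for partial curves) and is censored at the highest tested concentration. Rows with DSS 0 (no meaningful response) were excluded.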

CAL-51 [2] = test system: CAL-51
Protocol: as §1

MDA-MB-468 [3] = test system: MDA-MB-468
Protocol: as §1

CAL-85-1 [4] = test system: CAL-85-1
Protocol: as §1

CAL-148 [5] = test system: CAL-148; remark: listed apart in the source
Method in brief: (§2)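 Per-plate normalisation used 0.1 % DMSO and a positive kill control. Breast cancer cell lines (20 µl suspension) were seeded into 384-well plates containing compound at 5 concentrations in 10-fold steps across a compound-specific 10,000-fold range, incubated for 72 h, and read first for CellTox Green fluorescence (485/520 nm), then for CellTiter-Glo luminescence. EC50 was fitted from the dose-response curves and censored at the top concentration.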

MDA-MB-231 [6] = test system: MDA-MB-231
Method in brief: as §2

Hs578T [7] = test system: Hs578T
Method in brief: as §2

CAL-51 [8] = test system: CAL-51; remark: listed apart in the source
Method in brief: as §2

BT-549 [9] = test system: BT-549
Method in brief: as §2

DU-4475 [10] = test system: DU-4475
Method in brief: as §2

MCF-10A [11] = test system: MCF-10A
Method in brief: as §2

HCC1599 [12] = test system: HCC1599
Method in brief: as §2

SK-BR-3 = test system: SK-BR-3
Method in brief: as §2

MDA-MB-453 [13] = test system: MDA-MB-453
Method in brief: as §2

HCC1143 [14] = test system: HCC1143
Method in brief: as §2

BT-474 [15] = test system: BT-474
Method in brief: as §2

MDA-MB-436 = test system: MDA-MB-436
Method in brief: as §2

CAL-85-1 [16] = test system: CAL-85-1; remark: listed apart in the source
Method in brief: as §2

HDQ-P1 [17] = test system: HDQ-P1
Method in brief: as §2

MDA-MB-231 [18] = test system: MDA-MB-231; remark: listed apart in the source
Method in brief: (§3)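 For viability, cells received 2.5 µl CellTiter-Blue for 2 h at 37 °C and fluorescence was read at 560/590 nm. Before this, breast cancer cell lines in 20 µl suspension had been incubated for 72 h on 384-well plates pre-loaded with compound dissolved in 5 µl medium. EC50 was obtained from a percent-inhibition dose-response fit censored at the highest concentration, after normalisation of each plate to vehicle and a positive kill control; rows with a zero drug sensitivity score were discarded.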

Hs578T [19] = test system: Hs578T; remark: listed apart in the source
Method in brief: as §3

HCC1599 [20] = test system: HCC1599; remark: listed apart in the source
Method in brief: as §3

HCC1143 [21] = test system: HCC1143; remark: listed apart in the source
Method in brief: as §3

BT-474 [22] = test system: BT-474; remark: listed apart in the source
Method in brief: as §3

MFM-223 [23] = test system: MFM-223
Method in brief: as §3

MDA-MB-468 [24] = test system: MDA-MB-468; remark: listed apart in the source
Method in brief: as §3

DU-4475 [25] = test system: DU-4475; remark: listed apart in the source
Method in brief: as §3

MDA-MB-453 [26] = test system: MDA-MB-453; remark: listed apart in the source
Method in brief: as §3

CAL-85-1 [27] = test system: CAL-85-1; remark: listed apart in the source
Method in brief: as §3

HDQ-P1 [28] = test system: HDQ-P1; remark: listed apart in the source
Method in brief: as §3

CAL-120 = test system: CAL-120
Protocol: as §1

MFM-223 [29] = test system: MFM-223; remark: listed apart in the source
Method in brief: as §2

MDA-MB-231 [30] = test system: MDA-MB-231; remark: listed apart in the source
Protocol: as §1

Hs578T [31] = test system: Hs578T; remark: listed apart in the source
Protocol: as §1

DU-4475 [32] = test system: DU-4475; remark: listed apart in the source
Protocol: as §1

MCF-10A [33] = test system: MCF-10A; remark: listed apart in the source
Protocol: as §1

HCC1143 [34] = test system: HCC1143; remark: listed apart in the source
Protocol: as §1

BT-474 [35] = test system: BT-474; remark: listed apart in the source
Protocol: as §1

HDQ-P1 [36] = test system: HDQ-P1; remark: listed apart in the source
Protocol: as §1

HCC1937 = test system: HCC1937
Method in brief: as §2

BT-549 [37] = test system: BT-549; remark: listed apart in the source
Protocol: as §1

HCC1599 [38] = test system: HCC1599; remark: listed apart in the source
Protocol: as §1

MFM-223 [39] = test system: MFM-223; remark: listed apart in the source
Protocol: as §1

SMILES | EC50, CellTox Green (CAL-51 [2]) | EC50, CellTox Green (CAL-85-1 [4]) | EC50, CellTiter-Glo (CAL-148 [5]) | EC50, CellTiter-Glo (MDA-MB-231 [6]) | EC50, CellTiter-Glo (Hs578T [7]) | EC50, CellTiter-Glo (CAL-51 [8]) | EC50, CellTiter-Glo (BT-549 [9]) | EC50, CellTiter-Glo (DU-4475 [10]) | EC50, CellTiter-Glo (MCF-10A [11]) | EC50, CellTiter-Glo (HCC1599 [12]) | EC50, CellTiter-Glo (SK-BR-3) | EC50, CellTiter-Glo (MDA-MB-453 [13]) | EC50, CellTiter-Glo (HCC1143 [14]) | EC50, CellTiter-Glo (BT-474 [15]) | EC50, CellTiter-Glo (MDA-MB-436) | EC50, CellTiter-Glo (CAL-85-1 [16]) | EC50, CellTiter-Glo (HDQ-P1 [17]) | EC50, CellTiter-Blue viability (MDA-MB-231 [18]) | EC50, CellTiter-Blue viability (Hs578T [19]) | EC50, CellTiter-Blue viability (HCC1599 [20]) | further results
COc1cccc2c1C(=O)c1c(O)c3c(c(O)c1C2=O)C[C@@](O)(C(=O)CO)C[C@@H]3O[C@H]1C[C@H](N)[C@H](O)[C@H](C)O1 [Doxorubicin] | 68 nM | 440 nM | 187 nM | 311 nM | 463 nM | 41.5 nM | 154 nM | 177 nM | 856 nM | 597 nM | 263 nM | 607 nM | 942 nM | 167 nM | 449 nM | 547 nM | 465 nM | 187 nM | 147 nM | 83.5 nM | EC50, CellTox Green (CAL-148 [1]): 92.4 nM; EC50, CellTox Green (MDA-MB-468 [3]): 100 nM; EC50, CellTiter-Blue viability (HCC1143 [21]): 132 nM; EC50, CellTiter-Blue viability (BT-474 [22]): 522 nM; EC50, CellTiter-Blue viability (MFM-223 [23]): 558 nM; EC50, CellTiter-Blue viability (MDA-MB-468 [24]): 150 nM; EC50, CellTiter-Blue viability (DU-4475 [25]): 71.8 nM; EC50, CellTiter-Blue viability (MDA-MB-453 [26]): 409 nM; EC50, CellTiter-Blue viability (CAL-85-1 [27]): 279 nM; EC50, CellTiter-Blue viability (HDQ-P1 [28]): 259 nM
CCN1CCN(c2ccc(Nc3cc(N(C)C(=O)Nc4c(Cl)c(OC)cc(OC)c4Cl)ncn3)cc2)CC1 [NVP-BGJ398] | – | – | – | – | > 1000 nM | – | – | – | – | – | – | – | – | – | – | – | – | – | – | – | EC50, CellTox Green (CAL-120): > 1000 nM; EC50, CellTiter-Glo (MFM-223 [29]): 50.5 nM
C=CCNC1=C2C[C@@H](C)C[C@H](OC)[C@H](O)[C@@H](C)/C=C(\C)[C@H](OC(N)=O)[C@@H](OC)/C=C\C=C(/C)C(=O)NC(=CC1=O)C2=O [Tanespimycin] | 122 nM | 46.1 nM | 178 nM | 371 nM | 97.9 nM | 78.2 nM | 52.9 nM | 208 nM | 87.8 nM | 266 nM | 46.3 nM | 23.4 nM | 63 nM | 324 nM | 28 nM | 404 nM | 103 nM | 722 nM | 36.9 nM | 84.3 nM | EC50, CellTox Green (CAL-148 [1]): 112 nM; EC50, CellTox Green (MDA-MB-231 [30]): 24.8 nM; EC50, CellTox Green (Hs578T [31]): 4340 nM; EC50, CellTox Green (DU-4475 [32]): 179 nM; EC50, CellTox Green (MCF-10A [33]): 105 nM; EC50, CellTox Green (HCC1143 [34]): > 10000 nM; EC50, CellTox Green (BT-474 [35]): 696 nM; EC50, CellTox Green (HDQ-P1 [36]): 112 nM; EC50, CellTiter-Glo (HCC1937): 113 nM; EC50, CellTiter-Glo (MFM-223 [29]): 64.1 nM; EC50, CellTiter-Blue viability (HCC1143 [21]): 8.84 nM; EC50, CellTiter-Blue viability (BT-474 [22]): 48.4 nM; EC50, CellTiter-Blue viability (MFM-223 [23]): 18.4 nM; EC50, CellTiter-Blue viability (DU-4475 [25]): 48.4 nM; EC50, CellTiter-Blue viability (MDA-MB-453 [26]): 15.5 nM; EC50, CellTiter-Blue viability (CAL-85-1 [27]): 194 nM; EC50, CellTiter-Blue viability (HDQ-P1 [28]): 82.7 nM
CC[C@]1(O)C[C@@H]2CN(CCc3c([nH]c4ccccc34)[C@@](C(=O)OC)(c3cc4c(cc3OC)N(C)[C@H]3[C@@](O)(C(=O)OC)[C@H](OC(C)=O)[C@]5(CC)C=CCN6CC[C@]43[C@@H]65)C2)C1 [Vinblastine] | 3.78 nM | 9.62 nM | 8.95 nM | 5.07 nM | 9.25 nM | 8.68 nM | 2.25 nM | 75.5 nM | 2.59 nM | 19.7 nM | 2.44 nM | 2.44 nM | 2.51 nM | 5.38 nM | 3.49 nM | 2.04 nM | 5.35 nM | 1.61 nM | 1.3 nM | 61.1 nM | EC50, CellTox Green (MDA-MB-231 [30]): 15.8 nM; EC50, CellTox Green (Hs578T [31]): 15.2 nM; EC50, CellTox Green (BT-549 [37]): 4.29 nM; EC50, CellTox Green (MCF-10A [33]): 11.4 nM; EC50, CellTox Green (CAL-120): > 1000 nM; EC50, CellTox Green (HCC1599 [38]): 7.49 nM; EC50, CellTox Green (HCC1143 [34]): 61.8 nM; EC50, CellTox Green (BT-474 [35]): 2.92 nM; EC50, CellTox Green (MFM-223 [39]): 7.9 nM; EC50, CellTox Green (MDA-MB-468 [3]): 2.48 nM; EC50, CellTiter-Glo (HCC1937): 2.55 nM; EC50, CellTiter-Glo (MFM-223 [29]): 12.4 nM; EC50, CellTiter-Blue viability (HCC1143 [21]): 1.61 nM; EC50, CellTiter-Blue viability (BT-474 [22]): 0.15 nM; EC50, CellTiter-Blue viability (MFM-223 [23]): 36 nM; EC50, CellTiter-Blue viability (MDA-MB-468 [24]): 1.5 nM; EC50, CellTiter-Blue viability (DU-4475 [25]): 52.4 nM; EC50, CellTiter-Blue viability (MDA-MB-453 [26]): 6.17 nM; EC50, CellTiter-Blue viability (CAL-85-1 [27]): 6.34 nM; EC50, CellTiter-Blue viability (HDQ-P1 [28]): 5.43 nM
